Experimental data: article PMC4965013, “Open Source Drug Discovery with the Malaria Box Compound Collection for Neglected Diseases and Beyond” (PLoS Pathogens, 2016)
Where two headings read alike, the source gives them in different places.

Columns and labels:
[1] = tested on: P. falciparum NF54 late-stage gametocytes; conditions: ref [61]; cited from earlier work
[2] = tested on: Naegleria fowleri trophozoites; assay: Naegleria fowleri CellTiter-Glo; assay type: cell-based; conditions: Naegleria fowleri
Description: Columns CY-CZ: Kyle group (data presented first in this paper). Naegleria fowleri trophozoite growth inhibition. Methods: The CellTiter-Glo (CTG) 2.0 luminescent assay is a quantitative assay that assesses the presence of cellular ATP in lysed cells, displaying an output in Relative Light Units (RLU’s). This was previously standardised, for the growth and development of Naegleria fowleri trophozoites in-vitro to assess drug susceptibility on this parasite. […] These included two drug-like molecules MMV665807 (St. Jude’s Children’s Hospital) and MMV665979 (The Genomics Institute of the Novartis Research Foundation - GNF) and two Probe-like molecules, MMV006203 (GNF) & MMV006172 (GNF; GlaxoSmithKline - GSK). […] However, these Malaria Box compounds were all toxic to zebrafish and mammalian cells.

P. falciparum 3D7 = assay: [3H]-hypoxanthine growth inhibition, modified HCO3- or O2; assay type: cell-based; conditions: for IC50: Plasmodium falciparum
[3] = tested on: P. falciparum 3D7 trophozoites; assay: Metabolomic fingerprint profiling LC-MS; assay type: cell-based, Plasmodium falciparum; design: UDP-D-glucose / ADP-D-glucose: unit not given here
P. falciparum = assay: EC50 listed in S2 Table Metabolomics (used to set the concentration tested); assay type: cell-based; conditions: Plasmodium falciparum; EC50 used for Factor_XEC50 in metabolomics; read-out: EC50_nM
[4] = metabolite level change after treatment

For `CCN(CC)CCn1c(=N)n(CC(O)c2ccc(Cl)c(Cl)c2)c2ccccc21` (stereo not shown) [MMV000248], the IC50 [1] is listed as less than 350 nM.
With `Cc1cc(NCCN2CCCCC2)c2ccc3ccccc3c2n1` [MMV006203] the EC50 [2] was 420 nM, the “fold change (IC50normal/ IC50hypoxia)” value (P. falciparum 3D7) was 3.7 and the IC50 (P. falciparum 3D7; 3D7, read-out: P. falciparum 3D7 IC50 1% O2, 1% O2 hypoxia) was 132 nM. It also gave an IC50 (P. falciparum 3D7; 3D7, read-out: P. falciparum 3D7 IC50 5% O2) of 489 nM, an Acetyllysine ([3]; S2 Table Metabolomics, metabolite Acetyllysine) of 0.08786 and a N-acetyl-L-ornithine ([3]; S2 Table Metabolomics, metabolite N-acetyl-L-ornithine) of 0.002896. For the same compound, the N-carbamoyl-L-aspartate ([3]; S2 Table Metabolomics, metabolite N-carbamoyl-L-aspartate) was 0.4112, the NADPH ([3]; S2 Table Metabolomics, metabolite NADPH) was 0.03038 and the dAMP ([3]; S2 Table Metabolomics, metabolite dAMP) was 0.7397. For the same compound, the dCMP ([3]; S2 Table Metabolomics, metabolite dCMP) was 0.2991, the dTDP ([3]; S2 Table Metabolomics, metabolite dTDP) was 0.8216 and the dTMP ([3]; S2 Table Metabolomics, metabolite dTMP) was 0.8444. It also gave a dTTP ([3]; S2 Table Metabolomics, metabolite dTTP) of 0.2113, a dihydroorotate ([3]; S2 Table Metabolomics, metabolite dihydroorotate) of 0.4914 and an orotate ([3]; S2 Table Metabolomics, metabolite orotate) of 0.1057. It also gave a DLH ([3]; S2 Table Metabolomics, peptide DLH) of -0.3111, a DLS/SDL/SID ([3]; S2 Table Metabolomics, peptide DLS/SDL/SID) of -0.5497 and a PD ([3]; S2 Table Metabolomics, peptide PD) of -0.2642. The PEE ([3]; S2 Table Metabolomics, peptide PEE) was -0.1431, the PVNF ([3]; S2 Table Metabolomics, peptide PVNF) was -0.3001 and the 3-phosphoglycerate ([3]; metabolite 3-phosphoglycerate, S2 Table Metabolomics) was -0.2573. For the same compound, the ADP-D-glucose ([3]; metabolite ADP-D-glucose, S2 Table Metabolomics) was 0.2156, the ATP ([3]; metabolite ATP, S2 Table Metabolomics) was -0.6838 and the CDP ([3]; metabolite CDP, S2 Table Metabolomics, change in metabolite level after compound treatment) was 0.8402. For the same compound, the D-sedoheptulose-1/7-phosphate ([3]; metabolite D-sedoheptulose-1/7-phosphate, S2 Table Metabolomics, change in metabolite level after compound treatment) was 0.9147, the FAD ([3]; metabolite FAD, S2 Table Metabolomics) was 0.06173 and the GMP ([3]; metabolite GMP, S2 Table Metabolomics, change in metabolite level after compound treatment) was -0.5622. The “NAD+” value ([3]; metabolite NAD+, S2 Table Metabolomics) was -0.01124, the “NADP+” value ([3]; metabolite NADP+, S2 Table Metabolomics) was 0.01586 and the “Octoluse Bisphosphate” value ([3]; metabolite Octoluse Bisphosphate, S2 Table Metabolomics, change in metabolite level after compound treatment) was -0.09172. For the same compound, the Pyroglutamic acid ([3]; metabolite Pyroglutamic acid, S2 Table Metabolomics) was -0.7767, the UDP-D-glucose ([3]; metabolite UDP-D-glucose, S2 Table Metabolomics) was 0.04255 and the UDP-D-glucuronate ([3]; metabolite UDP-D-glucuronate, S2 Table Metabolomics) was -0.09689. For the same compound, the UDP-N-acetyl-glucosamine ([3]; metabolite UDP-N-acetyl-glucosamine, S2 Table Metabolomics) was 0.1138, the UDP ([3]; metabolite UDP, S2 Table Metabolomics, change in metabolite level after compound treatment) was 0.8936 and the UMP ([3]; metabolite UMP, S2 Table Metabolomics, change in metabolite level after compound treatment) was -0.4956. It also gave a UTP ([3]; metabolite UTP, S2 Table Metabolomics, change in metabolite level after compound treatment) of -0.4083, an a-ketoglutarate ([3]; metabolite a-ketoglutarate, S2 Table Metabolomics) of -0.4253 and a citrate/isocitrate ([3]; metabolite citrate/isocitrate, S2 Table Metabolomics, change in metabolite level after compound treatment) of -0.3127. For the same compound, the cytidine ([3]; metabolite cytidine, S2 Table Metabolomics) was -0.1848, the dATP ([3]; metabolite dATP, S2 Table Metabolomics) was -0.6172 and the dGMP/AMP ([3]; metabolite dGMP/AMP, S2 Table Metabolomics, change in metabolite level after compound treatment) was 0.6443. The fumarate ([3]; metabolite fumarate, S2 Table Metabolomics, change in metabolite level after compound treatment) was -0.3628, the glucose-1/6-phosphate ([3]; metabolite glucose-1/6-phosphate, S2 Table Metabolomics, change in metabolite level after compound treatment) was 0.2347 and the glycerate ([3]; metabolite glycerate, S2 Table Metabolomics, change in metabolite level after compound treatment) was -0.4315. The guanine ([3]; metabolite guanine, S2 Table Metabolomics, change in metabolite level after compound treatment) was 0.07764, the guanosine ([3]; metabolite guanosine, S2 Table Metabolomics, change in metabolite level after compound treatment) was -0.09005 and the hypoxanthine ([3]; metabolite hypoxanthine, S2 Table Metabolomics) was -0.3483. For the same compound, the indole ([3]; metabolite indole, S2 Table Metabolomics) was -0.1837, the inosine ([3]; metabolite inosine, S2 Table Metabolomics, change in metabolite level after compound treatment) was -0.08456 and the 2_3-Diphosphoglyceric acid [3, 4] was 0.4386. For the same compound, the 4-phosphopantothenate [3, 4] was 0.2283, the 6-phospho-D-gluconate [3, 4] was 0.1112 and the FMN [3, 4] was 0.1526. It also gave an IMP [3, 4] of 0.332, a Pyrophosphate [3, 4] of 0.424 and a Sedoheptoluse bisphosphate [3, 4] of -0.2408. The cyclic-AMP [3, 4] was -0.2974, the glutathione disulfide [3, 4] was 0.042 and the lactate [3, 4] was -0.2642. For the same compound, the myo-inositol [3, 4] was -0.268, the nicotinate ([3]; metabolite nicotinate, S2 Table Metabolomics) was -0.1416 and the ornithine ([3]; metabolite ornithine, S2 Table Metabolomics) was -0.3267. For the same compound, the phosphoenolpyruvate ([3]; metabolite phosphoenolpyruvate, S2 Table Metabolomics) was -0.2017, the pyruvate ([3]; metabolite pyruvate, S2 Table Metabolomics, change in metabolite level after compound treatment) was -0.1834 and the ribose-phosphate ([3]; metabolite ribose-phosphate, S2 Table Metabolomics) was -0.417. The sarcosine/alanine ([3]; metabolite sarcosine/alanine, S2 Table Metabolomics, change in metabolite level after compound treatment) was 0.1849, the sn-glycerol-3-phosphate ([3]; metabolite sn-glycerol-3-phosphate, S2 Table Metabolomics) was -0.1322 and the succinate/methylmalonic acid ([3]; metabolite succinate/methylmalonic acid, S2 Table Metabolomics, change in metabolite level after compound treatment) was -0.1409. For the same compound, the uridine ([3]; metabolite uridine, S2 Table Metabolomics, change in metabolite level after compound treatment) was -0.04629, the xanthosine ([3]; metabolite xanthosine, S2 Table Metabolomics, change in metabolite level after compound treatment) was -0.705 and the EC50 (P. falciparum) was 300 nM.
